Test results published in US12077503B2, “Substituted cyclic amides and their use as herbicides” (FMC CORPORATION, priority 2015, dated 2024).

How the values were obtained:
Assay type in all cases: in vivo
soybean (Glycine max) = assay: Test C preemergence; conditions: for Plant response rating, Soybean: scale 0 to 100, 0 no effect, 100 complete control
Summary of the method: (§1)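 Greenhouse test: seeds in a loam and sand blend treated preemergence, or seedlings at the 1- to 4-leaf stage (2 to 18 cm) in a peat, vermiculite and limestone mix treated postemergence, with test chemicals in a surfactant-containing non-phytotoxic solvent. Scored by eye at 13 to 15 d relative to controls, 0 (no effect) to 100 (complete control).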

[1] = tested on: velvetleaf (Abutilon theophrasti); assay: Test C preemergence; conditions: for Plant response rating, Velvetleaf: scale 0 to 100, 0 no effect, 100 complete control
Summary of the method: as §1

corn (Zea mays) = assay: Test C preemergence; conditions: for Plant response rating, Corn: scale 0 to 100, 0 no effect, 100 complete control
Summary of the method: as §1

[2] = tested on: ryegrass, Italian (Italian ryegrass, Lolium multiflorum); assay: Test C preemergence; conditions: for Plant response rating, Ryegrass, Italian: scale 0 to 100, 0 no effect, 100 complete control
Summary of the method: as §1

[3] = tested on: waterhemp (common waterhemp, Amaranthus rudis); assay: Test C preemergence; conditions: for Plant response rating, Waterhemp: scale 0 to 100, 0 no effect, 100 complete control
Summary of the method: as §1

[4] = tested on: oilseed rape (Brassica napus); assay: Test C preemergence; conditions: for Plant response rating, Oilseed Rape: scale 0 to 100, 0 no effect, 100 complete control
Summary of the method: as §1

[5] = tested on: foxtail, giant (giant foxtail, Setaria faberii); assay: Test C preemergence; conditions: for Plant response rating, Foxtail, Giant: scale 0 to 100, 0 no effect, 100 complete control
Summary of the method: as §1

[6] = tested on: johnsongrass (Sorghum halepense); assay: Test C preemergence; conditions: for Plant response rating, Johnsongrass: scale 0 to 100, 0 no effect, 100 complete control
Summary of the method: as §1

[7] = tested on: wheat (winter wheat, Triticum aestivum); assay: Test C preemergence; conditions: for Plant response rating, Wheat: scale 0 to 100, 0 no effect, 100 complete control
Summary of the method: as §1

[8] = tested on: nutsedge, yellow (yellow nutsedge, Cyperus esculentus); assay: Test C preemergence; conditions: for Plant response rating, Nutsedge, Yellow: scale 0 to 100, 0 no effect, 100 complete control
Summary of the method: as §1

[9] = tested on: Galium (catchweed bedstraw, Galium aparine); assay: Test C preemergence; conditions: for Plant response rating, Galium: scale 0 to 100, 0 no effect, 100 complete control
Summary of the method: as §1

[10] = tested on: ragweed (common ragweed, Ambrosia elatior); assay: Test C preemergence; conditions: for Plant response rating, Ragweed: scale 0 to 100, 0 no effect, 100 complete control
Summary of the method: as §1

[11] = tested on: pigweed (Amaranthus retroflexus); assay: Test C preemergence; conditions: for Plant response rating, Pigweed: scale 0 to 100, 0 no effect, 100 complete control
Summary of the method: as §1

[12] = tested on: crabgrass, large (large crabgrass, Digitaria sanguinalis); assay: Test C preemergence; conditions: for Plant response rating, Crabgrass, Large: scale 0 to 100, 0 no effect, 100 complete control
Summary of the method: as §1

[13] = tested on: barnyardgrass (Echinochloa crus-galli); assay: Test C preemergence; conditions: for Plant response rating, Barnyardgrass: scale 0 to 100, 0 no effect, 100 complete control
Summary of the method: as §1

[14] = tested on: lambsquarters (Chenopodium album); assay: Test C preemergence; conditions: for Plant response rating, Lambsquarters: scale 0 to 100, 0 no effect, 100 complete control
Summary of the method: as §1

[15] = tested on: blackgrass (Alopecurus myosuroides); assay: Test C preemergence; conditions: for Plant response rating, Blackgrass: scale 0 to 100, 0 no effect, 100 complete control
Summary of the method: as §1

[16] = tested on: morningglory (Ipomoea coccinea); assay: Test C preemergence; conditions: for Plant response rating, Morningglory: scale 0 to 100, 0 no effect, 100 complete control
Summary of the method: as §1

[17] = tested on: ducksalad (Heteranthera limosa); assay: Test C flooded paddy test; conditions: Flood, 0 is no effect, 100 is complete control
Summary of the method: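 Visual 0–100 injury rating versus controls (0 = no effect, 100 = complete control) at 13 to 15 d. 2-leaf-stage plants; pots flooded 3 cm over soil surface, test compound added to paddy water; greenhouse.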

[18] = 31 g ai/ha, 0 is no effect, 100 is complete control

Question: Which results are given for `CN1CC(c2ccc(F)c(C(F)(F)F)c2)C(C(=O)Nc2ccccc2S(C)(=O)=O)C1=O` (stereo not shown) [Compound 612]?
Answer: Plant response rating (scale of 0 to 100), Soybean (soybean (Glycine max); [18]): 0; Plant response rating, Soybean (soybean (Glycine max); 62 g ai/ha): 0; Plant response rating, Soybean (soybean (Glycine max); 125 g ai/ha): 10; Plant response rating, Soybean (soybean (Glycine max); 250 g ai/ha): 0; Plant response rating (scale of 0 to 100), Velvetleaf [1, 18]: 0; Plant response rating, Velvetleaf ([1]; 62 g ai/ha): 10; Plant response rating, Velvetleaf ([1]; 125 g ai/ha): 30; Plant response rating, Velvetleaf ([1]; 250 g ai/ha): 60; Plant response rating (scale of 0 to 100), Corn (corn (Zea mays); [18]): 40; Plant response rating, Corn (corn (Zea mays); 62 g ai/ha): 30; Plant response rating, Corn (corn (Zea mays); 125 g ai/ha): 65; Plant response rating, Corn (corn (Zea mays); 250 g ai/ha): 70; Plant response rating (scale of 0 to 100), Ryegrass, Italian [2, 18]: 20; Plant response rating, Ryegrass, Italian ([2]; 62 g ai/ha): 40; Plant response rating, Ryegrass, Italian ([2]; 125 g ai/ha): 50; Plant response rating, Ryegrass, Italian ([2]; 250 g ai/ha): 80; Plant response rating (scale of 0 to 100), Waterhemp [3, 18]: 75; Plant response rating, Waterhemp ([3]; 62 g ai/ha): 85; Plant response rating, Waterhemp ([3]; 125 g ai/ha): 90; Plant response rating, Waterhemp ([3]; 250 g ai/ha): 95; Plant response rating (scale of 0 to 100), Oilseed Rape [4, 18]: 30; Plant response rating, Oilseed Rape ([4]; 62 g ai/ha): 50; Plant response rating, Oilseed Rape ([4]; 125 g ai/ha): 70; Plant response rating, Oilseed Rape ([4]; 250 g ai/ha): 90; Plant response rating (scale of 0 to 100), Foxtail, Giant [5, 18]: 90; Plant response rating, Foxtail, Giant ([5]; 62 g ai/ha): 90; Plant response rating, Foxtail, Giant ([5]; 125 g ai/ha): 95; Plant response rating, Foxtail, Giant ([5]; 250 g ai/ha): 95; Plant response rating (scale of 0 to 100), Johnsongrass [6, 18]: 40; Plant response rating, Johnsongrass ([6]; 62 g ai/ha): 60; Plant response rating, Johnsongrass ([6]; 125 g ai/ha): 85; Plant response rating, Johnsongrass ([6]; 250 g ai/ha): 90; Plant response rating (scale of 0 to 100), Wheat [7, 18]: 20; Plant response rating, Wheat ([7]; 62 g ai/ha): 55; Plant response rating, Wheat ([7]; 125 g ai/ha): 25; Plant response rating, Wheat ([7]; 250 g ai/ha): 90; Plant response rating (scale of 0 to 100), Nutsedge, Yellow [8, 18]: 0; Plant response rating, Nutsedge, Yellow ([8]; 62 g ai/ha): 0; Plant response rating, Nutsedge, Yellow ([8]; 125 g ai/ha): 25; Plant response rating, Nutsedge, Yellow ([8]; 250 g ai/ha): 35; Plant response rating (scale of 0 to 100), Galium [9, 18]: 80; Plant response rating, Galium ([9]; 62 g ai/ha): 0; Plant response rating, Galium ([9]; 125 g ai/ha): 90; Plant response rating, Galium ([9]; 250 g ai/ha): 90; Plant response rating (scale of 0 to 100), Ragweed [10, 18]: 10; Plant response rating, Ragweed ([10]; 62 g ai/ha): 10; Plant response rating, Ragweed ([10]; 125 g ai/ha): 55; Plant response rating, Ragweed ([10]; 250 g ai/ha): 65; Plant response rating (scale of 0 to 100), Pigweed [11, 18]: 60; Plant response rating, Pigweed ([11]; 62 g ai/ha): 80; Plant response rating, Pigweed ([11]; 125 g ai/ha): 90; Plant response rating, Pigweed ([11]; 250 g ai/ha): 90; Plant response rating (scale of 0 to 100), Crabgrass, Large [12, 18]: 98; Plant response rating, Crabgrass, Large ([12]; 62 g ai/ha): 95; Plant response rating, Crabgrass, Large ([12]; 125 g ai/ha): 98; Plant response rating, Crabgrass, Large ([12]; 250 g ai/ha): 100; Plant response rating (scale of 0 to 100), Barnyardgrass [13, 18]: 85; Plant response rating, Barnyardgrass ([13]; 62 g ai/ha): 95; Plant response rating, Barnyardgrass ([13]; 125 g ai/ha): 95; Plant response rating, Barnyardgrass ([13]; 250 g ai/ha): 98; Plant response rating (scale of 0 to 100), Lambsquarters [14, 18]: 45; Plant response rating, Lambsquarters ([14]; 62 g ai/ha): 45; Plant response rating, Lambsquarters ([14]; 125 g ai/ha): 40; Plant response rating, Lambsquarters ([14]; 250 g ai/ha): 70; Plant response rating (scale of 0 to 100), Blackgrass [15, 18]: 70; Plant response rating, Blackgrass ([15]; 62 g ai/ha): 90; Plant response rating, Blackgrass ([15]; 125 g ai/ha): 90; Plant response rating, Blackgrass ([15]; 250 g ai/ha): 95; Plant response rating (scale of 0 to 100), Morningglory [16, 18]: 0; Plant response rating, Morningglory ([16]; 62 g ai/ha): 0; Plant response rating, Morningglory ([16]; 125 g ai/ha): 25; Plant response rating, Morningglory ([16]; 250 g ai/ha): 55; Plant response rating (scale of 0 to 100), Ducksalad ([17]; 31 g ai/ha): 0; Plant response rating (scale of 0 to 100), Ducksalad ([17]; 62 g ai/ha): 0; Plant response rating (scale of 0 to 100), Ducksalad ([17]; 125 g ai/ha): 0; Plant response rating (scale of 0 to 100), Ducksalad ([17]; 250 g ai/ha): 55
